{"source": "patent US20080311589A1", "about": "“METHOD OF HIGH-THROUGHPUT SCREENING OF MOLECULES AND COMPOUNDS FOR THEIR EFFECTS ON BIOLOGICAL AND CHEMICAL PROCESSES” (priority 1999, published 2008)", "system": "Mv1Lu mink lung epithelial cells", "assay": "6144 well BrdU cytoblot", "format": "cell-based", "details": "approximately 6000 nanowells", "procedure": "FIG. 4. BrdU incorporation is detected in 6144 well plates with a cytoblot. (a) The actual size of the wells of a 6144 well plate (nanowells; You et al. Chem. Biol. 4:969-975. 1997) is shown. (b) 25× magnification of the blot shown in (a). The indicated number of cells (Mv1Lu) were seeded in […] volumes in duplicate in 1% mink medium with or without 10 μM BrdU or 400 pM TGF-β, as indicated. The cells were cultured for 24 hours at 37° C. with 5% CO2 and then a 6144 well cytoblot was performed (see protocols). (c) Two separate nanowell plates (You et al. Chem. Biol. 4:969-975. 1997) were seeded with 20,000 Mv1Lu cells/mL in 1% mink medium with or without 500 pM TGF-13. After 26 hours at 37° C. with 5% CO2 BrdU was added to a final concentration of 10 μM. The cells were incubated for an additional 18 hours at 37° C. with 5% CO2 and then a 6144 well cytoblot was performed (see protocols).\nThe anti-BrdU cytoblot assay was then tested for its ability to detect the inhibition of BrdU uptake in a plate containing approximately 6000 arrayed “nanowells” (You et al. Chem Biol 4:969-975. 1997. Incorporated herein by reference). […] The following protocol provides experimental detail.\nThe reagents to be tested were prepared in 1536 well plates with one or more test compound per well. […]"}
{"substance": "TGF-β: anti-mitogen transforming growth factor β, multifunctional polypeptide signaling factor", "values": [{"measurement": "BrdU incorporation", "value": "prevented BrdU incorporation"}]}
